Like-named read-outs stand apart in the source and are kept apart here.
B1: G-CSF: mouse recombinant G-CSF (Stemcell) (protein, UniProt P09920 31-208, looked up)
Granulocyte …: VPLVTVSALPPSLPLPRSFLLKSLEQVRKIQASGSVLLEQLCATYKLCHPEELVLLGHSLGIPKASLSGCSSQALQQTQCLSQLHSGLCLYQGLLQALSGISPALAPTLDLLQLDVANFATTIWQQMENLGVAPTVQPTQSAMPAFTSAFQRRAGGVLAISYLQGFLETARLALHHLA

Legend:
[1] = tested on: B78-D14 wild-type cells; assay: Cell sensitivity to inhibitors (IC50 from final confluency, IncuCyte); assay type: cell-based; details: Mus musculus
Procedure: (§1) Cells were plated in a 96-well plate at 500 cells/well in 200 μL of cell culture media. Plates were incubated overnight at 37° C. and 5% CO2. The following day, media was replaced with 0-100 mM 2-DG in quadruplicate. Plates were imaged once every 4 hrs on the IncuCyte Zoom (Essen Bioscience) for 5 days. Final confluency measurements were calculated using the system algorithm and the IC50 was determined by GraphPad Prism.

[2] = tested on: B78-D14 m.11,944^60% cells; assay: as above; assay type: cell-based, mouse; details: for IC50: Mus musculus
Procedure: as §1

[3] = tested on: B78-D14 m.12,436^60% cells; assay: as above; assay type: cell-based, mouse; details: for IC50: Mus musculus
Procedure: as §1

[4] = tested on: B78-D14 m.12,436^80% cells; assay: as above; assay type: cell-based, mouse; details: for IC50: Mus musculus
Procedure: as §1

[5] = tested on: metastatic melanoma; assay: Response of metastatic melanoma patient cohort (Riaz et al.) to nivolumab, stratified by tumour mtDNA mutation status; assay type: in vivo, human
From the text: Mutation calls and calculated heteroplasmy were used to assign patients to mtDNA wildtype, <50% VAF or >50% VAF groups.

[6] = tested on: metastatic melanoma; details: of the 15 responders; cited from earlier work
[7] = tested on: Hcmel12 tumours; assay: Manipulation of tumour-associated neutrophils with G-CSF or anti-Ly6G, with or without anti-PD1, in Hcmel12 tumours; assay type: in vivo, mouse
Procedure: To determine if neutrophil depletions were necessary for observed sensitivity to ICB, the inventors chose to manipulate the proportion of tumour-associated neutrophils using G-CSF and anti-Ly6G treatments. Hcmel12 wild-type, m.12,436^83% and cytoLbNOX cells were allografted into C57BL/6 mice and were put on G-CSF or anti-Ly6G treatment with or without antiPD1 (FIG. 43A).
For immunotherapy experiments, mice were put on a dosing regimen of 200 μg of anti-PD1 given intraperitoneally twice a week. The first dose was given 7 days post-injection and all mice were sacrificed at 21 or 13 days post-injection for B78 or HcMel12 cells respectively. Either 5 μg mouse recombinant G-CSF (Stemcell) or 100 μg anti-mouse Ly6G—clone 1A8 (2B Scientific) was given intraperitoneally every 2 days post-engraftment to mice for neutrophil depletion experiments.

[8] = wild-type cells, read-out: IC50
[9] = printed as mt.11944^80%, read-out: IC50
[10] = m.12,436^60% cells, read-out: IC50
[11] = m.12,436^80% cells, read-out: IC50

Row | Molecule | IC50 [1, 8] [µM] | IC50 [2, 9] [µM] | sensitivity compared with wild-type cells ([2]; m.11,944^60% cells) | IC50 [3, 10] [µM] | sensitivity compared with wild-type cells ([3]; m.12,436^60% cells) | IC50 [4, 11] [µM] | sensitivity compared with wild-type cells ([4]; m.12,436^80% cells) | also measured
1 | CN(C)C(=N)N=C(N)N [metformin] | 26300 ± 1490 | 22900 ± 700 | enhanced sensitivity | 16600 ± 2430 | enhanced sensitivity | 5890 ± 710 | enhanced sensitivity | –
2 | nivolumab | – | – | – | – | – | – | – | tumours responding ([5]; <50% VAF tumours): 17%; tumours responding ([5]; >50% VAF tumours): 40%; likelihood to respond, >50% VAF tumours versus mtDNA wild-type or low VAF tumours ([5]; Example 1 analysis): 2.5 ×; rate of response of >50% VAF cancers versus wild-type or <50% VAF cancer ([5]; Example 2 analysis): 2.6 fold; cohort response rate, partial or complete responses ([5]; mtDNA mutation status-naive cohort, 70 patients): 22%; complete responders categorised as >50% VAF ([5]; out of the 3 complete responders): 2; complete responses [6]: 3; partial responses [6]: 12
3 | C=C(C)[C@H]1Cc2c(ccc3c2O[C@@H]2COc4cc(OC)c(OC)cc4[C@@H]2C3=O)O1 [rotenone] | – | – | not differentially sensitive | – | not differentially sensitive | – | resistance compared to wild type | IC50 [1]: 0.236 ± 0.026 µM; IC50 [2]: 0.205 ± 0.033 µM; IC50 [3]: 0.235 ± 0.035 µM; IC50 [4]: 0.493 ± 0.108 µM
4 | O=CC[C@@H](O)[C@H](O)[C@H](O)CO [2-DG, 2-deoxyglucose] | 1620 | – | more sensitive | 810 | more sensitive | 460 | further enhanced | IC50 ([2]; m.11,944^60% cells, read-out: IC50): 1040 µM
5 | CC[C@H]1/C=C/C=C/C[C@@H](C)[C@H](O)[C@@](C)(O)C(=O)[C@@H](C)[C@H](O)[C@@H](C)C(=O)[C@@H](C)[C@H](O)[C@@H](C)/C=C/C(=O)O[C@@H]2[C@H](C)[C@H](CC1)O[C@]1(CC[C@H](C)[C@H](C[C@@H](C)O)O1)[C@H]2C [oligomycin] | 13.8 ± 3.8 | 13.5 ± 3.32 | None of the mutants demonstrated differential sensitivity | – | None of the mutants demonstrated differential sensitivity | – | None of the mutants demonstrated differential sensitivity | IC50 ([3]; mt.12436^60% cells, read-out: IC50): 13.5 ± 3.32 µM; IC50 ([4]; mt.12436^80% cells, read-out: IC50): 7.75 ± 0.56 µM
6 | B1 | – | – | – | – | – | – | – | tumour-associated neutrophil proportions ([7]; across genotypes): increases; sensitivity of tumours to anti-PD1 ([7]; m.12,436^83% and cytoLbNOX tumours, G-CSF plus anti-PD1): abolished sensitivity; tumour weight versus untreated tumours at the same end-point ([7]; without anti-PD1): did not affect tumour weight
